Measurements published in patent publication US10570122B2, “Compounds with anti-tumoral activity” (AB Science, priority 2015, dated 2020).

Experiments:
CLS354 = assay: CellTiter-Blue cell-based survival/proliferation assay, CLS354; details: Homo sapiens, CLS-354; CLS354_4 head & neck tumor cell line, 48 h
Procedure: (§1) Cell-Based Proliferation Screening of Compounds
(§2) CellTiter-Blue cell-based survival/proliferation assay (Promega G8080) was performed on tumor cell lines. A total of 1·10^4 cells/well/50 μl were seeded in a 96-wells plate. Treatment was initiated by addition of a 2× drug solution of 1/10 serial dilutions ranging from 0 to 10 μM. Cells were grown for 48 h at 37° C. and then incubated with 10 μl/well of Promega CellTiter-Bleue reagent for 4 h at 37° C. The amount of resorufin dye formed was quantified by its fluorescence emission at 590 nm using a scanning multiwell spectrophotometer (OPTIMA, BMG labtech, France). A blank well without cells was used as a background control for the spectrophotometer.

PC3 = assay: CellTiter-Blue cell-based survival/proliferation assay, PC3; details: Homo sapiens, PC-3; PC3 prostate tumor cell line, 48 h
Procedure: as §1, §2

SW579 = assay: CellTiter-Blue cell-based survival/proliferation assay, SW579; details: Homo sapiens; SW579 head & neck tumor cell line, 48 h
Procedure: as §1, §2

HL60 = assay: CellTiter-Blue cell-based survival/proliferation assay, HL60; details: Homo sapiens, HL-60, Leukemia cell line HL60, 48 h, read-out: Anti-tumoral activity (measured IC50) HL60
Procedure: as §1, §2

[1] = tested on: panel of about 34 human tumor cell lines; assay: Cell-based proliferation screening on panel of tumor cell lines; details: solid tumor cell line, cell line unknown, 48 h, read-out: IC50, solid tumor cell line of column 6 (last section of Table 3)
Procedure: Compounds of formula (I) were tested against a panel of about 34 human tumor cell lines representing 17 cancer type, namely leukemia (represented by 1 cell line), lymphoma (4 cell lines), myeloma (1 cell line), colorectal (2 cell lines), head and neck (3 cell lines), lung (3 cell lines), melanoma (2 cell lines), pancreas (2 cell lines), prostate (2 cell lines), ovary (2 cell lines) breast (2 cell lines), kidney (2 cell lines), stomach (2 cell lines), liver (2 cell lines), glioblastoma (2 cell lines), osteosarcoma (1 cell line), Ewing Sarcoma (1 cell line).
as §1, §2

AGS = assay: CellTiter-Blue cell-based survival/proliferation assay, AGS; details: Homo sapiens; AGS stomach tumor cell line, 48 h
Procedure: as §1, §2

DLD1 = assay: CellTiter-Blue cell-based survival/proliferation assay, DLD1; details: Homo sapiens, DLD-1; DLD_1 colorectal tumor cell line, 48 h
Procedure: as §1, §2

MESSA = assay: CellTiter-Blue cell-based survival/proliferation assay, MESSA; details: Homo sapiens, MES-SA; MESSA ovary tumor cell line, 48 h
Procedure: as §1, §2

BXPC3 = assay: CellTiter-Blue cell-based survival/proliferation assay, BXPC3; details: Homo sapiens, BXPC-3; BXPC3 pancreas tumor cell line, 48 h
Procedure: as §1, §2

HCT116 = assay: CellTiter-Blue cell-based survival/proliferation assay, HCT116; details: Homo sapiens, HCT-116; HCT116 colorectal tumor cell line, 48 h
Procedure: as §1, §2

BT20 = assay: CellTiter-Blue cell-based survival/proliferation assay, BT20; details: Homo sapiens, BT-20; BT20 breast tumor cell line, 48 h
Procedure: as §1, §2

PANC1 = assay: CellTiter-Blue cell-based survival/proliferation assay, PANC1; details: Homo sapiens, PANC-1; PANC_1 pancreas tumor cell line, 48 h
Procedure: as §1, §2

CALU6 = assay: CellTiter-Blue cell-based survival/proliferation assay, CALU6; details: Homo sapiens, Calu-6; CALU6 lung tumor cell line, 48 h
Procedure: as §1, §2

HEP2 = assay: CellTiter-Blue cell-based survival/proliferation assay, HEP2; details: Homo sapiens, HEp-2; HEP2 head & neck tumor cell line, 48 h
Procedure: as §1, §2

HEPG2 = assay: CellTiter-Blue cell-based survival/proliferation assay, HEPG2; details: Homo sapiens; HEPG2 liver tumor cell line, 48 h
Procedure: as §1, §2

MDAMB231 = assay: CellTiter-Blue cell-based survival/proliferation assay, MDAMB231; details: Homo sapiens, MDA-MB-231; MDAMB231 breast tumor cell line, 48 h
Procedure: as §1, §2

HGC27 = assay: CellTiter-Blue cell-based survival/proliferation assay, HGC27; details: Homo sapiens, HGC-27; HGC27 stomach tumor cell line, 48 h
Procedure: as §1, §2

H1299 = assay: CellTiter-Blue cell-based survival/proliferation assay, H1299; details: Homo sapiens, NCI-H1299; H1299 lung tumor cell line, 48 h
Procedure: as §1, §2

ACHN = assay: CellTiter-Blue cell-based survival/proliferation assay, ACHN; details: Homo sapiens; ACHN kidney tumor cell line, 48 h
Procedure: as §1, §2

DU145 = assay: CellTiter-Blue cell-based survival/proliferation assay, DU145; details: Homo sapiens, DU-145; DU145 prostate tumor cell line, 48 h
Procedure: as §1, §2

A498 = assay: CellTiter-Blue cell-based survival/proliferation assay, A498; details: Homo sapiens; A498 kidney tumor cell line, 48 h
Procedure: as §1, §2

A549 = assay: CellTiter-Blue cell-based survival/proliferation assay, A549; details: Homo sapiens; A549 lung tumor cell line, 48 h
Procedure: as §1, §2

PLCPRF5 = assay: CellTiter-Blue cell-based survival/proliferation assay, PLCPRF5; details: Homo sapiens, PLC-PRF-5; PLC_PRF5 liver tumor cell line, 48 h
Procedure: as §1, §2

OPM2 = assay: CellTiter-Blue cell-based survival/proliferation assay, OPM2; details: Homo sapiens, OPM-2, Myeloma cell line OPM2, 48 h, read-out: Anti-tumoral activity (measured IC50) OPM2
Procedure: as §1, §2

TOV112D = assay: CellTiter-Blue cell-based survival/proliferation assay, TOV112D; details: Homo sapiens; TOV112D ovary tumor cell line, 48 h
Procedure: as §1, §2

| SMILES | IC50 (CLS354) | IC50 (PC3) | IC50 (SW579) | IC50 (HL60) | IC50 [1] | IC50 (AGS) | IC50 (DLD1) | IC50 (MESSA) | IC50 (BXPC3) | IC50 (HCT116) | IC50 (BT20) | IC50 (PANC1) | IC50 (CALU6) | IC50 (HEP2) | IC50 (HEPG2) | IC50 (MDAMB231) | IC50 (HGC27) | IC50 (H1299) | IC50 (ACHN) | IC50 (DU145) | also measured |
| --- | --- | --- | --- | --- | --- | --- | --- | --- | --- | --- | --- | --- | --- | --- | --- | --- | --- | --- | --- | --- | --- |
| CCOCc1ccc(C)c(Nc2ncc(-c3ccc(N4C(=O)NC[C@H]4C)nc3)o2)c1 [Example 058, (R)-1-(5-(2-((5-(ethoxymethyl)-2-methylphenyl)amino)oxazol-5-yl)pyridin-2-yl)-5-methylimidazolidin-2-one] | ≤ 0.1 µM | ≤ 0.1 µM | > 1 µM | ≤ 0.1 µM | 0.1 to 0.5 µM | > 1 µM | > 1 µM | > 1 µM | > 1 µM | > 1 µM | > 1 µM | > 1 µM | > 1 µM | 0.1 to 0.5 µM | > 1 µM | > 1 µM | > 1 µM | > 1 µM | > 1 µM | > 1 µM | IC50 (A498): > 1 µM; IC50 (A549): > 1 µM; IC50 (PLCPRF5): > 1 µM; IC50 (OPM2): ≤ 0.1 µM; IC50 (TOV112D): ≤ 0.1 µM |
| CCOCc1ccc(C)c(Nc2ncc(-c3ccc(-c4ccn[nH]4)cc3)o2)c1 [Example 057, 5-(4-(1H-pyrazol-5-yl)phenyl)-N-(5-(ethoxymethyl)-2-methylphenyl)oxazol-2-amine] | 0.1 to 0.5 µM | 0.5 to 1 µM | > 1 µM | 0.1 to 0.5 µM | 0.5 to 1 µM | > 1 µM | > 1 µM | > 1 µM | > 1 µM | > 1 µM | > 1 µM | > 1 µM | > 1 µM | 0.5 to 1 µM | > 1 µM | > 1 µM | > 1 µM | > 1 µM | > 1 µM | > 1 µM | IC50 (A498): > 1 µM; IC50 (A549): > 1 µM; IC50 (PLCPRF5): > 1 µM; IC50 (OPM2): 0.1 to 0.5 µM; IC50 (TOV112D): ≤ 0.1 µM |
| CCOCc1ccc(C)c(Nc2ncc(-c3ccc(-c4cn[nH]c4)cc3)o2)c1 [Example 060, 5-(4-(1H-pyrazol-4-yl)phenyl)-N-(5-(ethoxymethyl)-2-methylphenyl)oxazol-2-amine] | > 1 µM | > 1 µM | > 1 µM | 0.5 to 1 µM | > 1 µM | > 1 µM | > 1 µM | > 1 µM | > 1 µM | > 1 µM | > 1 µM | > 1 µM | > 1 µM | > 1 µM | > 1 µM | > 1 µM | > 1 µM | > 1 µM | > 1 µM | > 1 µM | IC50 (A498): > 1 µM; IC50 (A549): > 1 µM; IC50 (PLCPRF5): > 1 µM; IC50 (OPM2): 0.5 to 1 µM; IC50 (TOV112D): > 1 µM |
| CCOCc1cc(Nc2ncc(-c3ccc(N4CCNC4=O)cc3)o2)cc(OCCOC)c1 [Example 056, 1-(4-(2-((3-(ethoxymethyl)-5-(2-methoxyethoxy)phenyl)amino)oxazol-5-yl)phenyl)imidazolidin-2-one] | ≤ 0.1 µM | ≤ 0.1 µM | ≤ 0.1 µM | ≤ 0.1 µM | ≤ 0.1 µM | > 1 µM | > 1 µM | > 1 µM | > 1 µM | > 1 µM | > 1 µM | > 1 µM | > 1 µM | ≤ 0.1 µM | > 1 µM | > 1 µM | > 1 µM | > 1 µM | 0.1 to 0.5 µM | > 1 µM | IC50 (A498): > 1 µM; IC50 (A549): > 1 µM; IC50 (PLCPRF5): > 1 µM; IC50 (OPM2): ≤ 0.1 µM; IC50 (TOV112D): ≤ 0.1 µM |
| CCOCc1ccc(C)c(Nc2ncc(-c3ccc(-n4c(C)n[nH]c4=O)cc3)o2)c1 [Example 052, 4-(4-(2-((5-(ethoxymethyl)-2-methylphenyl)amino)oxazol-5-yl)phenyl)-5-methyl-2,4-dihydro-3H-1,2,4-triazol-3-one] | > 1 µM | > 1 µM | > 1 µM | > 1 µM | > 1 µM | > 1 µM | > 1 µM | > 1 µM | > 1 µM | > 1 µM | > 1 µM | > 1 µM | > 1 µM | > 1 µM | > 1 µM | > 1 µM | > 1 µM | > 1 µM | > 1 µM | > 1 µM | IC50 (A498): > 1 µM; IC50 (A549): > 1 µM; IC50 (PLCPRF5): > 1 µM; IC50 (OPM2): > 1 µM; IC50 (TOV112D): > 1 µM |
| CCOCc1cc(COCC)cc(Nc2ncc(-c3ccc(N4CCNC4=O)cc3)o2)c1 [Example 053, 1-(4-(2-((3,5-bis(ethoxymethyl)phenyl)amino)oxazol-5-yl)phenyl)imidazolidin-2-one] | ≤ 0.1 µM | ≤ 0.1 µM | > 1 µM | ≤ 0.1 µM | ≤ 0.1 µM | 0.1 to 0.5 µM | > 1 µM | ≤ 0.1 µM | > 1 µM | ≤ 0.1 µM | > 1 µM | > 1 µM | > 1 µM | ≤ 0.1 µM | > 1 µM | > 1 µM | 0.1 to 0.5 µM | > 1 µM | > 1 µM | > 1 µM | IC50 (A498): > 1 µM; IC50 (A549): > 1 µM; IC50 (PLCPRF5): > 1 µM; IC50 (OPM2): ≤ 0.1 µM; IC50 (TOV112D): > 1 µM |
| CCOCc1ccc(C)c(Nc2ncc(-c3ccc(-n4nc[nH]c4=O)cc3)o2)c1 [Example 043, 2-{4-[2-(5-Ethoxymethyl-(2-methyl-phenylamino))-oxazol-5-yl]-phenyl}-2,4-dihydro-[1,2,4]triazol-3-one] | > 1 µM | > 1 µM | > 1 µM | 0.5 to 1 µM | 0.1 to 0.5 µM | > 1 µM | > 1 µM | > 1 µM | > 1 µM | > 1 µM | > 1 µM | > 1 µM | > 1 µM | > 1 µM | > 1 µM | > 1 µM | > 1 µM | > 1 µM | > 1 µM | > 1 µM | IC50 (A498): > 1 µM; IC50 (A549): > 1 µM; IC50 (PLCPRF5): > 1 µM; IC50 (OPM2): 0.5 to 1 µM; IC50 (TOV112D): 0.1 to 0.5 µM |
| CCOCc1ccc(C)c(Nc2ncc(-c3ccc(-c4ccnn4C)cc3)o2)c1 [Example 061, N-(5-(ethoxymethyl)-2-methylphenyl)-5-(4-(1-methyl-1H-pyrazol-5-yl)phenyl)oxazol-2-amine] | > 1 µM | > 1 µM | > 1 µM | > 1 µM | > 1 µM | > 1 µM | > 1 µM | > 1 µM | > 1 µM | > 1 µM | > 1 µM | > 1 µM | > 1 µM | > 1 µM | > 1 µM | > 1 µM | > 1 µM | > 1 µM | > 1 µM | > 1 µM | IC50 (A498): > 1 µM; IC50 (A549): > 1 µM; IC50 (PLCPRF5): > 1 µM; IC50 (OPM2): > 1 µM; IC50 (TOV112D): > 1 µM |
